How the values were obtained:
[1] = system: MCF10A-RCP cells; conditions: 30 uM U0126
Description: Cell proliferation and colony formation. Cells were plated at a density of 5000 cells/well in 96-well plates, and cell proliferation was measured in quadruplicate (ie, 4 wells per condition) using WST-1 (Roche) according to the manufacturer's protocol. For the MAPK inhibition assays, cells were treated with MEK inhibitor U0126 (Promega) overnight in medium with 0.5% serum before being re-plated into 96-well plates.

[2] = system: ERK phosphorylation in MCF10A-RCP cells
Description: Western blot analysis. Whole cell lysates were prepared using RIPA buffer. The proteins were separated by SDS-PAGE and transferred to Hybond-P PVDF membrane (GE Healthcare). Antibodies to RCP (Genway, Catalog Number (CN): 15-288-21574A), β-actin (Sigma, CN: A5441), phospho-Akt (Cell Signaling Technology, CN: 9271), Akt (Cell Signaling Technology, CN: 9272), phospho-Erk (Cell Signaling Technology, CN: 9101), and Erk (Cell Signalling, CN: 9102) were used to probe the membrane, and antibody-protein complex was detected by HRP-conjugated antibodies and ECL (Amersham Biosciences).
For the MAPK inhibition assays, cells were treated with MEK inhibitor U0126 (Promega) overnight in medium with 0.5% serum before being re-plated into 96-well plates.

For `N#CC(=C(/N)Sc1ccccc1N)/C(C#N)=C(\N)Sc1ccccc1N` [U0126], the proliferation [1] was “reduction of proliferation down to control levels”, the “RCP-induced phosphorylation of ERK” value ([2]; 30 μM of U0126) was “reduced to baseline” and the ERK phosphorylation status ([2]; range of U0126 concentrations) was “concentration dependent”.

— patent publication US8663915B2, “Methods of controlling tumorigenesis and diagnosing the risk thereof” (Agency for Science, Technology and Research, priority 2007, dated 2014)
